Reference: patent US12128084B2, “Use of PAYCS in regulation of intestinal flora, metabolites, and brain neurotransmitters” (Sericulture and Agri-Food Research Institute, Guangdong …, priority 2022, dated 2024)

Assays:
Type in all cases: in vivo
brain neurotransmitters = brain neurotransmitters of amnesic mice
fecal metabolites = fecal metabolites of amnesic mice
Excerpt: The scores of variable importance in projection (VIP) for symbol ** and symbol *** are P<0.05, P<0.01, and P<0.001 respectively.

[1] = system: MDA, LDH, SOD, GP(x) in liver and serum; assay: liver and serum oxidation indexes of amnesic mice
intestinal microflora = assay: 16S rRNA analysis of intestinal microflora of amnesic mice
Excerpt: The symbols * and ** represent P<0.05 and P<0.01, respectively.

[2] = system: IL-1β and TNF-α in liver and serum; assay: liver and serum inflammatory indexes of amnesic mice
[3] = system: mice with amnesia induced by scopolamine; assay: behavioral test (jumping test, swimming test; training part and test part) in scopolamine-induced amnesic mice
Procedure: The mice were tested for a jumping test (FIG. 1A), swimming speed (FIG. 1), swimming distance (FIG. 1C), the number of crossings on the target platform (FIG. 1D), the number of crossings on the target quadrants (FIG. 1E), the escape latency and the error times (FIG. 1F) during the training. In the test part, the swimming distance, the swimming speed, number of crossings on target quadrant (FIG. 1G), the number of crossings on the target platform, and escape latency (H) were determined. In these figures, #: compared with the control group, P<0.05; compared with the control group, P<0.01; *: compared model group, P<0.05; **: compared with the model group, P<0.01.
FIG. 7 is an experiment designed to evaluate the effect of PAYCS-L (lower dose of SEQ ID NO: 1) and PAYCS-H (higher dose of SEQ ID NO: 1) on learning and memory function in mice with amnesia induced by scopolamine.

[4] = scopolamine-induced amnesic mice
[5] = PAYCS-H (higher dose), scopolamine-induced amnesic mice

## Pro-Ala-Tyr-Cys-Ser (PAYCS; sequence of the peptide ProAlaTyrCysSer)
Brain neurotransmitters; e.g. Ach, GABA, Glu, HisA, Kyn
  neurotransmitters: significantly up-regulated
Brain neurotransmitters; mouse, in vivo
  brain neurotransmitters in amnesic mice: regulatory effect
  tryptophan metabolism-related neurotransmitters in the brain: improves
Fecal metabolites; PAYCS-H (higher dose)
  fecal metabolites: re-modulates
Fecal metabolites; e.g. Panax notoginseng saponins and cholinergic acid
  memory-related metabolites: significantly up-regulated
Fecal metabolites; e.g. blumealactone C, thalictroidine, notoginsenoside M, 3a,7a,12b-trihydroxy-5b-cholanoic acid, sequiterpene lactone 326, helenalin, cholic acid
  memory-related metabolites: significantly up-regulated
Fecal metabolites; mouse, in vivo
  fecal metabolites in amnesic mice: regulatory effect
[1]; PAYCS-H (higher dose)
  antioxidant effect: good
  oxidative stress in the liver and serum: reverses
[1]; mouse, in vivo
  liver and serum deficits: positive effect
[1]; [4]
  LDH level in serum: significantly reduce
  MDA level in serum: significantly reduce
  SOD content in the liver: significantly increase
Intestinal microflora; 16S rRNA analysis
  relative abundance of Cacteroidaceae: increased
  relative abundance of Prevotellaceae: increased
Intestinal microflora; PAYCS-H (higher dose)
  intestinal microorganisms: re-modulates
Intestinal microflora; PAYCS-L (lower dose)
  abundance of intestinal microorganism population in amnesic mice: reconstitutes
Intestinal microflora; PAYCS-L (lower dose), 16S rRNA analysis
  ratio of Bacteroidetes/Firmicutes: changed
[2]; PAYCS-H (higher dose)
  anti-inflammatory effect: good
  inflammatory stress in the liver and serum: reverses
[2]; [5]
  IL-1β in the liver: inhibit the increase
  TNF-α in the liver: inhibit the increase
[2]; PAYCS-L (lower dose), scopolamine-induced amnesic mice, only TNF-α
  content of TNF-α in the liver: reduces
[3]; PAYCS-H (0.4 g/kg bw, higher dose), 3 weeks of treatment, scopolamine-induced mouse model
  cognitive function in the test part of the behavioral test: better improvement
[3]; PAYCS-L (0.2 g/kg bw, lower dose), 3 weeks of treatment, scopolamine-induced mouse model
  memory enhancement in the training part of the behavioral test: better effect of memory enhancement
[3]; PAYCS-L (lower dose)
  memory deficits in amnesic mice: partially reverses
[3]; mouse, in vivo
  scopolamine-induced memory impairment in mice: remedies
